{"source": "patent US20240226105A1", "about": "(priority 2021, published 2024)", "key": {"[1]": {"assay_type": "physicochemical", "settings": "pH 4"}, "[2]": {"assay_type": "physicochemical"}, "[3]": {"assay_type": "physicochemical", "remark": "listed apart in the source"}, "[4]": {"assay_type": "physicochemical", "remark": "listed apart in the source"}, "[5]": {"assay_type": "physicochemical", "remark": "listed apart in the source"}, "[6]": {"settings": "cited from earlier work"}, "[7]": {"assay_type": "physicochemical", "remark": "listed apart in the source"}, "[8]": {"assay_type": "physicochemical", "remark": "listed apart in the source"}}, "note": "“Also recorded” adds a separate entry of the source. Where two headings read alike, the source gives them in different places.", "data": [{"smiles": "N=C1NC(O)C2C3OC4(O)O[C@@H](C(O)C2(N1)[C@@H]4O)C3(O)CO", "note": "(stereo partly shown) [TTX, octahydro-12-(hydroxymethyl)-2-imino-5,9:7,10a-dimethano-10aH-(1,3)dioxocino(6,5-d)-pyrimidine-4,7,10,11,12-pentanol]", "values": [{"measurement": "concentration up to which TTX was sufficiently soluble", "setting": "[1]", "value": "≥ 300", "unit": "µg/mL"}, {"measurement": "concentration at which TTX was found to be solubilized", "setting": "[2]", "value": 300, "unit": "µg/mL"}, {"measurement": "TTX solubility (observation)", "setting": "[3]", "value": "Deposits in the vial; also recorded: Partially solubilized; also recorded: Almost fully solubilized"}, {"measurement": "concentration up to which TTX was soluble", "setting": "[4]", "value": "about 150 ug/mL"}, {"measurement": "solubility of TTX in a combination of organic solvents and acids", "setting": "[5]", "value": "below 30 μg/ml"}, {"measurement": "TTX Solubility", "setting": "[5]; pH 3.7", "value": "Not soluble"}, {"measurement": "TTX Solubility", "setting": "[5]; pH 4.6", "value": "Not soluble"}, {"measurement": "pKa", "setting": "[6]", "value": 9.4}, {"measurement": "solubility of TTX in pure organic solvents", "setting": "[7]", "value": "below 30 μg/ml"}, {"measurement": "concentration at which TTX was found to be solubilized", "setting": "[8]", "value": 300, "unit": "µg/mL"}]}]}
